According to patent US10842845B2, “Oxytocin improves treatment of obstructive sleep apnea” (THE GEORGE WASHINGTON UNIVERSITY, priority 2014, dated 2020):
“Also recorded” adds a separate entry of the source.

Experiments:
[1] = target: T1, DREADDs receptors on PVN OXT neurons (Homo sapiens, UniProt P20309, A239G/Y149C); assay: Telemetry of resting blood pressure and heart rate before and after CNO injection; format: in vivo, Sprague-Dawley rats
T1 construct: mCherry (C); host or cells: PVN oxytocin neurons of Sprague-Dawley rats, in vivo, transduced with AAV2-hSyn-DIO-hM3D(Gq)-mCherry and rAAV1-OXT-Cre
From the text: To record blood pressure and heart rate, male Sprague-Dawley rats, 3-4 weeks of age, were anesthetized using isoflurane (2-4%) and a HD-XII pressure transmitter was implanted (Data Sciences International, St Paul, Minn., USA) with its cathether inserted into the abdominal aorta to record pressure and EKG leads were attached subcutaneously to obtain EKG recordings and heart rate. All rats with telemetry devices were allowed 7-14 days to recover from transmitter implantation surgery before any measurements were recorded. Blood pressure and heart rate were recorded via radio-frequency signals obtained through the Ponemah data acquisition system (Data Sciences International). Baseline recordings of blood pressure and heart rate were obtained for 3 days prior to CIH/H exposure. Prior to, and during, the 28 day CIH/H exposure period daily baseline recordings of blood pressure and heart rate were recorded.
(§1) 1-2 weeks after telemetry implantation, DREADDs receptors on PVN OXT neurons were activated daily by intraperitoneal (IP) injection of clozapine-n-oxide (CNO, 1.0 mg/kg). To investigate the effects of CNO on resting BP and HR in both DREADDs-expressing and sham animals, 3 days prior to CIH/H exposure (control days) baseline BP and HR values were recorded for a 20 min period before CNO injection. Animals from each group then received an IP injection of CNO, BP and HR were recorded for 1 hr, and the animals then underwent exposure to air for 8 hr to achieve acclimation to the chambers. During the 21 days of CIH/H exposure, baseline recordings of BP and HR were obtained before CNO injection, recorded for 1 hr post CNO injection, and for the entire duration of OHM exposure.
To examine the effects of CNO on and the chronic changes to mean arterial blood pressure (MAP) over the 21 days of OHM exposure, values were recorded before and after CNO injection on control days prior to CIH exposures, and days 1, 3, 6, 9, 12, 15, 18, and 21 of CIH/H. Changes within the DREADDs-expressing animals and the sham animals were statistically analyzed by one-way ANOVA with repeated-measures followed by Bonferroni's multiple comparison test. To examine the statistical changes in MAP between the two groups of animals, a two-way ANOVA with repeated-measures followed by Bonferroni's multiple comparison test was used. Data with p<0.05 were considered significant.
CNO administration had no effect on BP represented as mean arterial pressure (MAP) and HR in sham animals without DREADDs expression (FIGS. 10A and 10B). However, CNO administration that activates DREADDs receptors in PVN OXT neurons decreased resting HR and BP throughout 21 days of CIH/H exposure, with significant decreases in MAP (104±2.6 mmHg before CNO to 93±1.7 mmHg after CNO; n=8; ^+p<0.0001; paired t test; FIG. 10A) and HR (416±7.1 beats/min before CNO to 362±10.5 beats/min after CNO; n=8; ^+p<0.01; paired t test; FIG. 10B).

OXT receptors = assay: Calcium imaging in OXT receptor-expressing CHO cells on brainstem slices upon photoactivation of ChR2-containing PVN fibers; format: cell-based, rat; settings: from baseline during first second; CIH/H animals with daily injections of CNO (chronic OXT neuron activation); n=17; CIH/H alone 8.1±0.01%
Procedure: Visualization of CHO cells expressing OXT receptors and the calcium indicator, as well as ChR2-containing PVN fibers, were performed on a confocal microscope system as previously described (Gamer and Buchel, 2012). To examine activation of OXT receptors upon optogenetic activation of ChR2-expressing PVN fibers in the DMV, CHO cells were pipetted onto the dorsal motor nucleus (DMV) of brain stem slices from animals previously injected with pLenti-Syn-hChR2(H134R)-EYFP-WPRE into the PVN, OXT-sensitive CHO cells within the boundaries of the DMV and in close apposition to ChR2-containing PVN fibers (7.5±0.5 μm) were used for experiments.
as §1, with “During the 21 days of CIH/H exposure, baseline recordings of BP and HR were obtained before CNO injection, recorded for 1 hr post CNO injection, and for the entire duration of OHM exposure.” left out

T1 sequence (P20309 whole entry Y149C/A239G, the tested form may be a part): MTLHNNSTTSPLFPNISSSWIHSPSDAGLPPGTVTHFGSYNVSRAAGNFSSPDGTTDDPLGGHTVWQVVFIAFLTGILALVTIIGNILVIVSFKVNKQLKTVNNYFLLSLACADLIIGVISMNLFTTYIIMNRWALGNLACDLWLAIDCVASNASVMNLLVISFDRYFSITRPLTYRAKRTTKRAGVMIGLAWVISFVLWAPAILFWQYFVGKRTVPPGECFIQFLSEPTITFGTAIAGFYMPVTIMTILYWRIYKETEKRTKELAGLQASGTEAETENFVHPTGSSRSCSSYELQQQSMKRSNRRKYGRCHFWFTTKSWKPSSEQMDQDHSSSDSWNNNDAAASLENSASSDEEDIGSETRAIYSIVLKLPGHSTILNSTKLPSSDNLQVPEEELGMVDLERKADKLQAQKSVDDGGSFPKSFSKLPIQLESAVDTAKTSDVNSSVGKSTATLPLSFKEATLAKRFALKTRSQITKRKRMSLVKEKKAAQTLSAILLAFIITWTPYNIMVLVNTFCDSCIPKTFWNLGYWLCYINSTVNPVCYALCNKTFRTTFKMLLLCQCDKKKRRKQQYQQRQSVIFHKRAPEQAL

Q: Which results are given for `C[N+]1([O-])CCN(C2=Nc3cc(Cl)ccc3Nc3ccccc32)CC1` [CNO, clozapine-n-oxide]?
A: change in HR after CNO injection (in words) ([1]; DREADDs-expressing animals, 45 min after CNO injection, n=8): significantly decreased; MAP after CNO ([1]; DREADDs-expressing animals, CNO 1.0 mg/kg IP, 104±2.6 mmHg before CNO, n=8): 93±1.7 mmHg; HR after CNO ([1]; DREADDs-expressing animals, CNO 1.0 mg/kg IP, 416±7.1 beats/min before CNO, n=8): 362±10.5 beats/min; change in resting MAP after CNO injection (in words) ([1]; oxytocin neuron activated (DREADDs-expressing) animals, 45 min after CNO injection, n=8): significantly decreased; effect of CNO on HR in sham animals without DREADDs expression (in words) ([1]; sham animals, n=7): no effect; also recorded: did not significantly change; effect of CNO on MAP in sham animals without DREADDs expression (in words) ([1]; sham animals, n=7): no effect; also recorded: did not significantly change; average increase in intracellular calcium in OXT-sensitive CHO cells upon photostimulation of ChR2-containing PVN fibers in the DMV (OXT receptors): 23.4±0.03%
